{"source": "PubChem BioAssay (NCI)", "assay_in_all_cases": "NCI-60 cell line screen, 48 h", "key": {"[1]": {"test_system": "786-0 renal"}, "[2]": {"test_system": "A498 renal"}, "[3]": {"test_system": "A549 NSCLC"}, "[4]": {"test_system": "ACHN renal"}, "[5]": {"test_system": "BT-549 breast"}, "[6]": {"test_system": "CAKI-1 renal"}, "[7]": {"test_system": "CCRF-CEM leukemia"}, "[8]": {"test_system": "COLO 205 colon"}, "[9]": {"test_system": "DU-145 prostate"}, "[10]": {"test_system": "EKVX NSCLC"}, "[11]": {"test_system": "HCC-2998 colon"}, "[12]": {"test_system": "HCT-116 colon"}, "[13]": {"test_system": "HCT-15 colon"}, "[14]": {"test_system": "HL-60(TB) leukemia"}, "[15]": {"test_system": "HOP-62 NSCLC"}, "[16]": {"test_system": "HOP-92 NSCLC"}, "[17]": {"test_system": "HS 578T breast"}, "[18]": {"test_system": "HT29 colon"}, "[19]": {"test_system": "IGROV1 ovarian"}, "[20]": {"test_system": "K-562 leukemia"}, "[21]": {"test_system": "KM12 colon"}, "[22]": {"test_system": "LOX IMVI melanoma"}, "[23]": {"test_system": "M14 melanoma"}, "[24]": {"test_system": "MALME-3M melanoma"}, "[25]": {"test_system": "MCF7 breast"}, "[26]": {"test_system": "MDA-MB-231 breast"}, "[27]": {"test_system": "MDA-MB-435"}}, "note": "Where “and” joins values, the source holds several entries; their conditions need not be identical. Identical values can stand only once.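 Assay format: 96-well plates, 48-hour exposure. At the GI50, growth is halved. Definition used: TGI = concentration required for complete inhibition of growth.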"}
{"smiles": "CN(C)C1CCN(C(=O)c2ccc(NC(=O)Nc3ccc(-c4nc(N5CCOCC5)nc(N5CCOCC5)n4)cc3)cc2)CC1", "values": [{"measurement": "GI50", "setting": "[1]", "value": "237 nM and 136 nM and 571 nM"}, {"measurement": "TGI", "setting": "[1]", "value": "2820 nM and 2500 nM and 8530 nM"}, {"measurement": "GI50", "setting": "[2]", "value": "39.1 nM and 30 nM and 5.66 nM"}, {"measurement": "TGI", "setting": "[2]", "value": "282 nM and 154 nM and 78.8 nM"}, {"measurement": "GI50", "setting": "[3]", "value": "13.2 nM and 18.3 nM and 41.7 nM"}, {"measurement": "TGI", "setting": "[3]", "value": "232 nM and 360 nM and 1020 nM"}, {"measurement": "GI50", "setting": "[4]", "value": "1420 nM and 1060 nM"}, {"measurement": "TGI", "setting": "[4]", "value": "> 100000", "unit": "nM"}, {"measurement": "GI50", "setting": "[5]", "value": "18 nM and 19.9 nM and 43.4 nM"}, {"measurement": "TGI", "setting": "[5]", "value": "239 nM and 206 nM and 635 nM"}, {"measurement": "GI50", "setting": "[6]", "value": "4160 nM and 1490 nM and 496 nM"}, {"measurement": "GI50", "setting": "[7]", "value": "21.7 nM and 49.1 nM and 104 nM"}, {"measurement": "GI50", "setting": "[8]", "value": "13.6 nM and 33.4 nM and 12 nM"}, {"measurement": "TGI", "setting": "[8]", "value": "155 nM and 545 nM and 188 nM"}, {"measurement": "GI50", "setting": "[9]", "value": "15.7 nM and 15.6 nM and 25.8 nM"}, {"measurement": "TGI", "setting": "[9]", "value": "14600 nM and 2500 nM and 7510 nM"}, {"measurement": "GI50", "setting": "[10]", "value": "15.8 nM and 20.3 nM and 40.4 nM"}, {"measurement": "GI50", "setting": "[11]", "value": "11.8 nM and 24 nM and 10.2 nM"}, {"measurement": "TGI", "setting": "[11]", "value": "839 nM and 2500 nM and 1030 nM"}, {"measurement": "GI50", "setting": "[12]", "value": "28.9 nM and 44.1 nM and 35.9 nM"}, {"measurement": "TGI", "setting": "[12]", "value": "5910 nM and 2500 nM and 2800 nM"}, {"measurement": "GI50", "setting": "[13]", "value": "3080 nM and 2190 nM"}, {"measurement": "TGI", "setting": "[13]", "value": "> 100000", "unit": "nM"}, {"measurement": "GI50", "setting": "[14]", "value": "244 nM and 45.7 nM and 52.6 nM"}, {"measurement": "TGI", "setting": "[14]", "value": "> 20400 nM and 2500 nM and 8910 nM"}, {"measurement": "GI50", "setting": "[15]", "value": "22 nM and 102 nM and 32.4 nM"}, {"measurement": "TGI", "setting": "[15]", "value": "382 nM and 1900 nM and 1100 nM"}, {"measurement": "GI50", "setting": "[16]", "value": "< 10 nM and 6.27 nM and 13.8 nM"}, {"measurement": "TGI", "setting": "[16]", "value": "28.8 nM and 54.4 nM and 116 nM"}, {"measurement": "GI50", "setting": "[17]", "value": "< 10 nM and 8.79 nM and 25 nM"}, {"measurement": "TGI", "setting": "[17]", "value": "61 nM and 69.7 nM and 343 nM"}, {"measurement": "GI50", "setting": "[18]", "value": "13.8 nM and 15.3 nM and 13.1 nM"}, {"measurement": "TGI", "setting": "[18]", "value": "266 nM and 2500 nM and 302 nM"}, {"measurement": "GI50", "setting": "[19]", "value": "< 10 nM and 7.88 nM and 10.3 nM"}, {"measurement": "TGI", "setting": "[19]", "value": "55.3 nM and 57.4 nM and 141 nM"}, {"measurement": "GI50", "setting": "[20]", "value": "130 nM and 35.7 nM and 132 nM"}, {"measurement": "GI50", "setting": "[21]", "value": "35.5 nM and 42.3 nM and 43.7 nM"}, {"measurement": "TGI", "setting": "[21]", "value": "7730 nM and 2500 nM and 2360 nM"}, {"measurement": "GI50", "setting": "[22]", "value": "< 10 nM and 11.1 nM and 29.6 nM"}, {"measurement": "GI50", "setting": "[23]", "value": "230 nM and 144 nM and 29.8 nM"}, {"measurement": "TGI", "setting": "[23]", "value": "5240 nM and 2500 nM and 1170 nM"}, {"measurement": "GI50", "setting": "[24]", "value": "13.8 nM and 38.2 nM and 8.99 nM"}, {"measurement": "TGI", "setting": "[24]", "value": "53 nM and 240 nM and 54 nM"}, {"measurement": "GI50", "setting": "[25]", "value": "6.65 nM and 6.04 nM"}, {"measurement": "TGI", "setting": "[25]", "value": "2500 nM and > 10000 nM"}, {"measurement": "GI50", "setting": "[26]", "value": "< 11.5 nM and 12.8 nM and 16.8 nM"}, {"measurement": "TGI", "setting": "[26]", "value": "1710 nM and 2500 nM and 286 nM"}, {"measurement": "GI50", "setting": "[27]", "value": "14.8 nM and 13 nM and 22.1 nM"}, {"measurement": "TGI", "setting": "[27]", "value": "133 nM and 284 nM and 324 nM"}]}
